Measured values reported in patent US20140242093A1, “METHODS AND COMPOSITIONS FOR MODULATING THE INNATE IMMUNE RESPONSE AND/OR MYOGENESIS IN A MAMMALIAN SUBJECT” (FRED HUTCHINSON CANCER RESEARCH CENTER, priority 2011, published 2014).

Legend:
[1] = tested on: 31-bp oligonucleotides containing the putative DUX4 binding site; assay: Electromobility shift assay (EMSA); design: species or system human; conditions: in vitro translated protein; TRIM48, CSF1R, THE1D oligos
Method: EMSA was performed with ^32P-labeled 31-bp oligonucleotides from endogenous genomic sequences containing the putative DUX4 binding site as probes (sequences below; only forward shown). Radiolabeled probes were incubated with in vitro translated protein generated from pCS2-DUX4-fl or pCS2-DUX4-s^2 vectors using the TNT SP6 Coupled Wheat Germ Extract System (Promega) according to manufacturer's instructions. To obtain supershift of protein-DNA complexes, 0.1 μg of E14-3 anti-DUX4 rabbit monoclonal antibody was added to the mixtures. For competition experiments, excess unlabeled probes of either wild-type or mutant sequences were included in the binding reaction. The gels were prepared and run as previously described (Knoepfler et al., 1999).

[2] = tested on: Cultured control human myoblasts; assay: Beta-defensin 3 and innate immune response, real-time qPCR of IFIH1, ISG20, DEFB103; type: cell-based
Method: Cultured control human myoblasts were grown to 80% confluence and infected with equivalent titers of lenti-GFP, lenti-DUX4-s and lenti-DUX4-fl in growth media supplemented with 8 μg/mL polybrene. Expression of innate immune responsive genes including IFIH1 (MDA5), ISG20 and DEFB103 were assessed by real-time qPCR as previously described at 24 hours (primer sequences below). For conditioned media, cells were infected with lenti-DUX4-fl for 12 hours, thoroughly washed 3 times with PBS and switched to fresh growth media to condition for 12 hours. Control conditioned media was produced from cells not infected with any lentivirus. Myoblasts were infected with lenti-GFP in either control conditioned media, lenti-DUX4-fl conditioned media or regular growth media supplemented with 1 μM human β-defensin 3 (Peptides International, Louisville, Ky.). Expression of innate immune responsive genes were examined after 24 hours.

DUX4-fl: full-length DUX4 protein (SEQ ID NO:110), expressed from lentiviral or pCS2 vectors or in vitro translated
binding to DUX4 core motifs [1]: binds the core motifs present in both MaLR-associated and non-repeat associated sites | expression of DEFB103A/B (β-defensin 3) ([2]; FIG. 7B): robustly induced expression of DEFB103A/B | induction of the innate immune response in myoblasts ([2]; RT-qPCR, similar titers, FIG. 7A): did not
